The source of these data is patent US5618943A, “Acetylenes disubstituted with a 5 OXO substituted tetrahydronaphthyl group and with an aryl or heteroaryl group having retinoid-like biological activity” (Allergan, priority 1994, dated 1997).

The structures appear in SMILES notation.

One assay deals with ornithine decarboxylase (ODC). Description: ODC assay: inhibition of TPA induction of ornithine decarboxylase (retinoic acid-like activity). The class given is biochemical. The conditions noted are these: concentration of the test compound which causes 80% inhibition in the ODC assay; TPA-induced. The text has this:
The retinoic acid-like activity of these compounds is confirmed through the classic measure of retinoic acid activity involving the effects of retinoic acid on ornithine decarboxylase. The original work on the correlation between retinoic acid and decrease in cell proliferation was done by Verma & Boutwell, Cancer Research, 1977, 37,2196-2201. That reference discloses that ornithine decarboxylase (ODC) activity increased precedent to polyamine biosynthesis. It has been established elsewhere that increases in polyamine synthesis can be correlated or associated with cellular proliferation. Thus, if ODC activity could be inhibited, cell hyperproliferation could be modulated. Although all cases for ODC activity increases are unknown, it is known that 12-0-tetradecanoylphorbol-13-acetate (TPA) induces ODC activity. […] Activity of exemplary compounds of the present invention in the abovedescribed ODC assay is disclosed in Table 2 which provides the IC80 concentration for the respective exemplary compound. ("IC80 " is that concentration of the test compound which causes 80% inhibition in the ODC assay. By analogy, "IC60, for example, is that concentration of the test compound which causes 60% inhibition in the ODC assay.)
The molecule `CCOC(=O)c1ccc(C#Cc2ccc3c(c2)C(C)(C)CCC3=O)cc1` [Compound 1, Ethyl 4-[(5,6,7,8-tetrahydro-8,8-dimethyl-5-oxonaphth-2-yl)ethynyl]benzoate] displayed an IC80 conc of 1.60 nmols.
On the same count and under the same terms, in the case of `CCOC(=O)c1ccc(C#Cc2ccc3c(c2)C(=O)CCC3(C)C)cc1` [Compound 2, Ethyl 4-[(5,6,7,8-tetrahydro-8,8-dimethyl-5-oxonaphth-3-yl)ethynyl]benzoate] it was 0.85 nmols.
As for `CCOC(=O)c1ccc(C#Cc2ccc3c(c2)C(C)(C)CCC3=O)nc1` [Compound 5, Ethyl 6-[(5,6,7,8-tetrahydro-8,8-dimethyl-5-oxonaphth-2-yl)ethynyl]nicotinate], the IC80 conc is reported as 113 nmols.
As to `CC1(C)CCC(=O)c2ccc(C#Cc3ccc(C(=O)O)cc3)cc21` [Compound 7, 4-[(5,6,7,8-tetrahydro-8,8-dimethyl-5-oxonaphth-2-yl)ethynyl]benzoic acid], the IC80 conc worked out at 1.60 nmols.
The molecule `CC1(C)CCC(=O)c2cc(C#Cc3ccc(C(=O)O)cc3)ccc21` [Compound 8, 4-[(5,6,7,8-tetrahydro-8,8-dimethyl-5-oxonaphth-3yl)ethynyl]benzoic acid] showed an IC80 conc of 1.37 nmols.
Still for that read-out and setting: in the case of `CCOC(=O)c1ccc(C#Cc2ccc3c(c2)C2(CCC3(C)C)SCCCS2)cc1` [Compound 58, Ethyl. 4-[[5,6,7,8-tetrahydro-8,8-dimethyl-5-(2-(1,3-dithiane))naphth-3-yl]ethynyl]benzoate] it was 26.12 nmols; in that of `CCOC(=O)c1ccc(C#Cc2ccc3c(c2)C(C)(C)CCC32SCCCS2)cc1` [Compound 59, Ethyl 4-[[5,6,7,8-tetrahydro-8,8-dimethyl-5-(2-(1,3-dithiane))napth-2-yl]ethynyl]benzoate], 23.00 nmols.
Take `CC1(C)CCC2(SCCCS2)c2cc(C#Cc3ccc(C(=O)O)cc3)ccc21` [Compound 60, 4-[[5,6,7,8-tetrahydro-8,8-dimethyl-5-(2-(1,3-dithiane))naphth-3-yl]ethynyl]benzoic acid]: the IC80 conc came to 2.60 nmols.

Another assay relates to ornithine decarboxylase (ODC).
Assay: not given
The note with it: literature statement; cited from earlier work.
`CC1=C(/C=C/C(C)=C/C=C/C(C)=C/C(=O)O)C(C)(C)CCC1` [Retinoic acid]: the “inhibition of TPA induction of ODC activity (in words)” value is listed as “inhibits this induction of ODC activity”.
